Results reported in BigSolDB 2.1.

Conditions: in ethyl acetate

CCCCCOC(=O)Nc1nc(=O)n([C@@H]2O[C@H](C)[C@@H](O)[C@H]2O)cc1F
Conditions | solubility (mole fraction)
278.15 K | 0.003
283.15 K | 0.0039
288.15 K | 0.0052
293.15 K | 0.00678
298.15 K | 0.00919
303.15 K | 0.0112
308.15 K | 0.0149
313.15 K | 0.019
318.15 K | 0.0237
323.15 K | 0.0301
